Reference: publication PMC8016166, “Identification of a Potent and Selective 5-HT1A Receptor Agonist with In Vitro and In Vivo Antinociceptive Activity” (ACS Chemical Neuroscience, 2020)
Read-outs that look alike come from different tables or passages of the source.

Experiments:
[1] = molecular target: T1, 5-HT1AR (Rattus norvegicus, UniProt P19327); test: [35S]GTPγS functional 5-HT1A assay in rat hippocampal membranes; type: biochemical; conditions: for agonist classification by Emax vs serotonin: [35S]GTPγS binding, partial = half (or lower) as efficacious as serotonin; for Emax: basal 5-HT1AR activation set to 100%, read-out: 5-HT1A Emax (%) ± SEM; for eudismic ratio (EC50S/R): S vs R optical isomer
T1 construct: from tissue; hippocampus per the main-text methods
T1 sequence (P19327 1-422): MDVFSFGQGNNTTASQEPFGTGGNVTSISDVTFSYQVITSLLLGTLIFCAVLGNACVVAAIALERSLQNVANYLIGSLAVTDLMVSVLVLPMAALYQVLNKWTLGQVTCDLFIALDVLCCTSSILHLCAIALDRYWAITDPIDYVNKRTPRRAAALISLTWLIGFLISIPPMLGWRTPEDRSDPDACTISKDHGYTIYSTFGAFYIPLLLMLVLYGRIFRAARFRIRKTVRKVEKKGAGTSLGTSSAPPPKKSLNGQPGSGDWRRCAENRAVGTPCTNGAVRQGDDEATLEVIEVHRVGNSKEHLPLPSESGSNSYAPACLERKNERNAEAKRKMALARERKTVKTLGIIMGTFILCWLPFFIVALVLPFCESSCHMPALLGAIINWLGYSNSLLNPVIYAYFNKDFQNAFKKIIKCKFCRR
Method: (§1) Male Sprague–Dawley rats were decapitated and their brains removed and placed on ice. The hippocampi (for the functional 5-HT1A receptor assay) or frontal cortexes (for the competitive 5-HT2A and 5-HT2C receptor assays) were dissected and homogenized with a glass homogenizer in 30 vol. ice-cold TED buffer (50 mMTris-HCl, 1 mM EDTA, 1 mM dithiotheritol, pH 7.4). Next, the homogenate was centrifuged at 21 000g for 30 min at 4 °C. The pellet was suspended in 30 vol TED buffer (pH 7.4) and incubated in a water bath for 10 min at 37 °C to remove endogenous ligands. The suspension was centrifuged again at 21 000g for 30 min at 4 °C. The pellet was resuspended in 30 vol TED buffer (pH 7.4) and the centrifugation step was repeated. The final pellet was suspended in 10 vol 50 mM Tris-HCl (pH 7.4) and stored at −80 °C until use.[47]
The [^35S]GTPγS assay was performed according to the method described previously.[49] […] Nonspecific binding was determined with 100 μM of unlabeled GTPγS. The reaction mixture was incubated for 90 min at 36 °C in a volume of 250 μL. […] Next, 96-well Unifilter Plates (PerkinElmer, USA) were presoaked for 1 h with 50 mM Tris-HCl (pH = 7.4) before harvesting. The reaction was terminated by vacuum filtration onto filter plates with the Filter Mate Harvester (PerkinElmer, USA). The samples were then rapidly washed with 2 mL of 50 mM Tris-HCl (pH = 7.4) buffer. The filter plates were dried for 2 h at 50 °C. After drying, 45 μL of EcoScint-20 scintillant (PerkinElmer, USA) was added to every well. The radioactivity was counted in a Trilux MicroBeta^2 counter (PerkinElmer, USA). The data were analyzed with GraphPad Prism 5.0 software (GraphPad Software, San Diego California USA, www.graphpad.com). To determine whether compound-stimulated [^35S]GTPγS binding involved 5-HT1A receptors, two protocols were used.
The curves were fitted with a one-site nonlinear regression model. Efficacy (Emax) and potency (pEC50) were calculated from […] from three separate experiments and expressed as the means ± SEM. […] The differences in compound potency and efficacy were evaluated with one-way ANOVA followed by the Bonferroni’s post-hoc test. The baseline G-protein stimulation was set at 100%. One, two, or three symbols represent statistical significance of 0.05, 0.01, and 0.001, respectively.

[2] = molecular target: T2, human 5-HT7b (Homo sapiens, UniProt P34969); test: Radioligand binding at 5-HT7 in transfected HEK293 cells; conditions: for selectivity 5-HT7/5-HT1A: Antilog [pKi (5-HT1AR) – pKi (5-HT7R)]; for Ki: transfected HEK293 cells, [3H]-5-CT, read-out: 5-HT7 pKi ± SEM (converted)
T2 construct: expressed in transfected cells

[3] = molecular target: T3, 5-HT2AR (Rattus norvegicus, UniProt P14842); test: Radioligand binding at 5-HT2A on rat frontal cortex membranes; conditions: for selectivity 5-HT2A/5-HT1A: Antilog [pKi (5-HT1AR) – pKi (5-HT2AR)]; for Ki: read-out: 5-HT2A pKi ± SEM (converted)
T3 construct: from tissue; host or cells: frontal cortex of male Sprague-Dawley rats
Method: as §1
The 5-HT2A assay was performed according to a previously described protocol with some modifications.[48] […] Nonspecific binding was determined in the presence of 10 μM mianserin. For the 5-HT2C assay, the frontal cortex homogenates (250 μg protein/mL) were incubated in triplicate with 1 nM [^3H]mesulergine for 60 min at 36 °C in a 50 mM Tris-HCl (pH 7.4) buffer containing 0.1% ascorbate, 10 mM MgCl2, 10 μM pargyline, 100 nM spiperone, and increasing concentrations (10^–10–10^–5 M) of the compound tested. After incubation, the reaction mixture was deposited onto UniFilter-96 GF/B plates, with the aid of a FilterMate-96 Harvester. The filter plates were presoaked with 0.4% PEI for 1 h. Next, each filter well was washed with 1.75 mL of 50 mM Tris-HCl (pH 7.4) and left to dry on a heating block set to 50 °C for 2 h. Then, 45 μL of Microscint-20 scintillation fluid was added to each filter well and left to equilibrate overnight. The filter-bound radioactivity was counted in a MicroBeta^2 Microplate Counter. Curves were fitted with a one-site sigmoidal dose–response equation and pKi for each compound was calculated with the Cheng-Pursoff equation. Results were analyzed with one-way ANOVA followed by the Bonferroni’s posthoc test. The results are expressed as means ± SEM of three independent experiments.

[4] = rat hippocampal membranes, [35S]GTPγS, three independent experiments, read-out: 5-HT1A pEC50 ± SEM (converted)

T2 sequence (P34969 1-432): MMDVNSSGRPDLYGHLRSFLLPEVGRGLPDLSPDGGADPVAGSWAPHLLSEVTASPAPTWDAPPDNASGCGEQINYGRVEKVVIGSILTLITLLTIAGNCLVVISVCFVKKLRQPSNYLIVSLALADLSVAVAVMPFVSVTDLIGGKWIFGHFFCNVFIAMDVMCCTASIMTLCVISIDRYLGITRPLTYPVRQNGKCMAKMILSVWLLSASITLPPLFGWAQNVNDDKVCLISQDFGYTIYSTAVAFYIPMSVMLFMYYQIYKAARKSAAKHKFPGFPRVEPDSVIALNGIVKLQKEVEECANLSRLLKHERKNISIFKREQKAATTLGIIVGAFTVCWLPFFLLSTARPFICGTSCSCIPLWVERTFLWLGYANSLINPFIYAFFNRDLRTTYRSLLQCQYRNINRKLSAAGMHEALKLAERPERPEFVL
T3 sequence (P14842 whole entry): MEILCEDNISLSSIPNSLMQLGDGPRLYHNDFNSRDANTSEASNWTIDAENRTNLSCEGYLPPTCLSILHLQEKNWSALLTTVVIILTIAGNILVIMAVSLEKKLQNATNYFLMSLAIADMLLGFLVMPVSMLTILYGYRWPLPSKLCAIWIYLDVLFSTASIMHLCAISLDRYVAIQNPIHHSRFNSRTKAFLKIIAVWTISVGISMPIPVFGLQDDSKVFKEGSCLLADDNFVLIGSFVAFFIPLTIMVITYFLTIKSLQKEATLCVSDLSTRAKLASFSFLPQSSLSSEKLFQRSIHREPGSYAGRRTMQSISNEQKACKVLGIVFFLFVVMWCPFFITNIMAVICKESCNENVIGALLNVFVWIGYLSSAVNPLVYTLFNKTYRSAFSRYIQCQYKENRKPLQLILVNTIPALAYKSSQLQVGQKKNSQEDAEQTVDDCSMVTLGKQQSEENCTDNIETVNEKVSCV

SMILES	agonist classification by Emax vs serotonin [1]	EC50 [1, 4] [nM]	Emax ([1]; rat hippocampal membranes) [%]	selectivity 5-HT7/5-HT1A [2]	Ki [2] [nM]	selectivity 5-HT2A/5-HT1A [3]	Ki [3] [nM]	functional activity of (S)-1 compared with racemate 1 [1] [fold]	eudismic ratio (EC50S/R) ([1]; [35S]GTPγS)	EC50 ([1]; [35S]GTPγS functional assay, read-out: EC50) [nM]
Cn1cncc1-c1ccccc1OCCNC[C@H]1COC(c2ccccc2)(c2ccccc2)O1 [(S)-2, N-((2,2-Diphenyl-1,3-dioxolan-4-yl)methyl)-2-(2-(1-methyl-1H-imidazol-5-yl)phenoxy)ethan-1-ammonium hydrogenoxalate]	full agonists	25.1	175 ± 2.7	148	603	245	1000			
c1ccc(C2(c3ccccc3)OC[C@@H](CNCCOc3ccccc3-c3ccncc3)O2)cc1 [(R)-1, N-[(2,2-Diphenyl-1,3-dioxolan-4-yl)methyl]-2-[2-(pyridin-4-yl)phenoxy]ethan-1-ammonium hydrogenoxalate]	partial agonists	63.1	158 ± 5.9	112	501	355	1580			
c1ccc(C2(c3ccccc3)OC[C@H](CNCCOc3ccccc3-c3ccncc3)O2)cc1 [(S)-1, N-[(2,2-Diphenyl-1,3-dioxolan-4-yl)methyl]-2-[2-(pyridin-4-yl)phenoxy]ethan-1-ammonium hydrogenoxalate]	partial agonists	15.8	138 ± 2.9	43	398	85	794	6		
Cn1cncc1-c1ccccc1OCCNCC1COC(c2ccccc2)(c2ccccc2)O1 (racemic) [rac-2, N-((2,2-diphenyl-1,3-dioxolan-4-yl)methyl)-2-(2-(1-methyl-1H-imidazol-5-yl)phenoxy)ethan-1-ammonium hydrogenoxalate]	full agonists	39.8	184 ± 2.7	89	661	56	417		2.6	
Cn1cncc1-c1ccccc1OCCNC[C@@H]1COC(c2ccccc2)(c2ccccc2)O1 [(R)-2, N-((2,2-Diphenyl-1,3-dioxolan-4-yl)methyl)-2-(2-(1-methyl-1H-imidazol-5-yl)phenoxy)ethan-1-ammonium hydrogenoxalate]	partial agonists	63.1	143 ± 3.6	66	794	74	891			
c1ccc(C2(c3ccccc3)OCC(CNCCOc3ccccc3-c3ccncc3)O2)cc1 (racemic) [rac-1, N-[(2,2-diphenyl-1,3-dioxolan-4-yl)methyl]-2-[2-(pyridin-4-yl)phenoxy]ethan-1-ammonium hydrogenoxalate]	partial agonists		151 ± 4.2	56	513	123	1120		4.0	92.1
